# Earlier results, collected in patent US20260183709A1, “GAS PURIFICATION METHOD AND GAS PURIFIER” (priority 2022, published 2026).
# Where two headings read alike, the source gives them in different places.
# Assays:
# [1] = test system: simian rotavirus; settings: ozone concentration 0.25 ppm
# [2] = test system: HBsAg; settings: in the air; ozone concentration 0.3 ppm; acting time 30 minutes
# [3] = test system: F's dysentery bacillus; settings: phosphate buffer solution; ozone introduction; acting time 15 seconds
# [4] = test system: escherichia coli phage; settings: ozone concentration 0.09-0.8 ppm; acting time 3 minutes
# [5] = test system: escherichia coli; settings: in the 25° C. air; ozone concentration 0.05 ppm; acting time 30 minutes
# [6] = test system: Salmonella typhimurium; settings: phosphate buffer solution; ozone introduction; acting time 15 seconds
# [7] = test system: bacteria
# [8] = test system: bacillus subtilis variant; settings: in the air; ozone concentration 2.5 mg/L; acting time 1 minute
# [9] = test system: bacillus subtilis variant; settings: in water; ozone concentration 4.6 mg/L; acting time 3 minutes
# [10] = test system: mucor; settings: acting time 30 minutes; killing rate cell shared with penicillium line; no ozone concentration printed
# [11] = test system: HAsAg; settings: in water; ozone concentration 13.6 ppm; acting time 30 minutes (cells shared with line above)
# [12] = test system: escherichia coli; settings: 10° C.; ozone concentration 0.3 ppm; acting time 1 minute
# [13] = test system: Influenza A virus; settings: ozone concentration 0.5 ppm; conditions and time not printed on the line (line above: in the air, 30 minutes)
# [14] = test system: staphylococcus albus; settings: ozone concentration 10 ppm; acting time 3 minutes
# [15] = test system: pseudomonas fluorescens; settings: phosphate buffer solution; ozone introduction; acting time 15 seconds
# [16] = test system: human immunodeficiency virus (HIV); settings: in serum; ozone concentration 4 ppm
# [17] = test system: staphylococcus aureus; settings: in the air; ozone concentration 9 ppm; acting time 60 minutes
# [18] = test system: penicillium; settings: in the air; acting time 30 minutes; no ozone concentration printed
# [19] = test system: aspergillus niger; settings: ozone concentration 1.5 ppm; acting time 1 minute; 'in water' printed on the line above
# [20] = test system: aspergillus versicolor; settings: in the air; ozone concentration 9.6 ppm; acting time 100 minutes
# [21] = test system: penicillium nigricans; settings: ozone concentration 12.5 ppm; acting time 35 minutes; killing rate cell shared with r37
# [22] = test system: pseudomonas aeruginosa; settings: ozone concentration 0.08-0.6 ppm; acting time 30 minutes
# [23] = test system: penicillium citrinum; settings: ozone concentration 15.4 ppm; acting time 30 minutes; killing rate cell shared with r37
# [24] = test system: cladosporium herbarum; settings: ozone concentration 23 ppm; acting time 30 minutes; killing rate cell shared with r37
# [25] = test system: human rotavirus; settings: ozone concentration 0.25 ppm
# [26] = test system: poliovirus; settings: in water; ozone concentration 0.13 ppm; acting time 3 minutes
# [27] = test system: common bacteria such as Escherichia coli, streptococcus, Pseudomonas aeruginosa, Staphylococcus aureus, and toxic bacteria; settings: in 15 minutes in the ozone environment
# [28] = test system: Vibrio cholerae; settings: phosphate buffer solution; ozone introduction; acting time 15 seconds
# [29] = test system: fusarium oxysporum; settings: ozone concentration 15.5 ppm; acting time 20 minutes; killing rate cell shared with r37
smiles,measurement,setting,value
"O=[O+][O-] [Ozone, ozone]",Killing rate,[1],100%
same,Killing rate,[2],75%
same,Killing rate,[3],100%
same,Killing rate (drop by log values),[4],drop by 7 log log values
same,Killing rate,[5],100%
same,Killing rate,[6],100%
same,sterilization rate faster than chlorine,[7]; compared with chlorine,600-3000 times
same,bactericidal ability higher than the ultraviolet rays,[7]; compared with ultraviolet rays,20%
same,sterilization rate faster in the water than chlorine,"[7]; in the water, compared with chlorine",600 times
same,Killing rate,[8],100%
same,Killing rate,[9],100%
same,Killing rate,[10],93.8%
same,Killing rate,[11],100%
same,Killing rate,[12],100%
same,Killing rate,[13],100%
same,Killing rate,[14],99.99%
same,Killing rate,[15],100%
same,Killing rate (drop by log values in titer),[16],drop by 6 log values in titer
same,Killing rate,[17],99.97%
same,Killing rate,[18],93.8%
same,Killing rate,[19],100%
same,Killing rate,[20],100%
same,Killing rate,[21],100%
same,Killing rate,[22],99.9%
same,Killing rate,[23],100%
same,Killing rate,[24],100%
same,Killing rate,[25],100%
same,Killing rate,[26],100%
same,sterilization rate,[27],above 99%
same,Killing rate,[28],100%
same,Killing rate,[29],100%
